Test results: PubChem BioAssay AID2060894 (Molecular Pharmacology Branch, DTP, NCI, 2025)

Tested on: K12877-001-R-J1-PDC complex spheroid viability
Assay: Anticancer human tumor K12877-001-R-J1-PDC patient-derived lung adenocarcinoma cell line growth inhibition [RAS]
Settings: for IC50: curve of first compound; for viability, T/C: stronger effect = lower value
Procedure, shortened: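 Agents were tested in combination matrices in half-log decrements from a top concentration at or near clinical Cmax (10 microM if undetermined). Targets were multi-cell spheroids of tumour lines plus HUVEC and MSC stromal cells.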

[1] = second compound 0.000949 µM, first compound 0.000949 µM
[2] = second compound 0.000949 µM, first compound 0.003 µM
[3] = second compound 0.000949 µM, first compound 0.00949 µM
[4] = second compound 0.000949 µM, first compound 0.03 µM
[5] = second compound 0.000949 µM, first compound 0.0949 µM
[6] = second compound 0.000949 µM, first compound 0.3 µM
[7] = second compound 0.003 µM, first compound 0.000949 µM
[8] = second compound 0.003 µM, first compound 0.003 µM
[9] = second compound 0.003 µM, first compound 0.00949 µM
[10] = second compound 0.003 µM, first compound 0.03 µM
[11] = second compound 0.003 µM, first compound 0.0949 µM
[12] = second compound 0.003 µM, first compound 0.3 µM
[13] = second compound 0.00949 µM, first compound 0.000949 µM
[14] = second compound 0.00949 µM, first compound 0.003 µM
[15] = second compound 0.00949 µM, first compound 0.00949 µM
[16] = second compound 0.00949 µM, first compound 0.03 µM
[17] = second compound 0.00949 µM, first compound 0.0949 µM
[18] = second compound 0.00949 µM, first compound 0.3 µM
[19] = second compound 0.03 µM, first compound 0.000949 µM
[20] = second compound 0.03 µM, first compound 0.003 µM
[21] = second compound 0.03 µM, first compound 0.00949 µM
[22] = second compound 0.03 µM, first compound 0.03 µM
[23] = second compound 0.03 µM, first compound 0.0949 µM
[24] = second compound 0.03 µM, first compound 0.3 µM
[25] = second compound 0.0949 µM, first compound 0.000949 µM
[26] = second compound 0.0949 µM, first compound 0.003 µM
[27] = second compound 0.0949 µM, first compound 0.00949 µM
[28] = second compound 0.0949 µM, first compound 0.03 µM
[29] = second compound 0.0949 µM, first compound 0.0949 µM
[30] = second compound 0.0949 µM, first compound 0.3 µM
[31] = second compound 0.3 µM, first compound 0.000949 µM
[32] = second compound 0.3 µM, first compound 0.003 µM
[33] = second compound 0.3 µM, first compound 0.00949 µM
[34] = second compound 0.3 µM, first compound 0.03 µM
[35] = second compound 0.3 µM, first compound 0.0949 µM
[36] = second compound 0.3 µM, first compound 0.3 µM
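Also: spheroids exposed to agents for one week before readout.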
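For viability, T/C in this document: tumour cells co-cultured with HUVEC and mesenchymal stem cells in spheroids.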

Molecule `C=CC(=O)N1CCN(c2nc(OCC3CCCN3C)nc3c(F)c(-c4nc(N)cc(C)c4C(F)(F)F)c(Cl)cc23)C(C)C1` (stereo unspecified) + CCn1c(-c2cccnc2C(C)OC)c2c3cc(ccc31)N1CCOC(CC(NC(=O)C(C(C)C)N(C)C(=O)C3(F)CCN(C(=O)C#CC(C)(C)N(C)C)CC3)C(=O)N3CCCC(N3)C(=O)OCC(C)(C)C2)C1 has an IC50 (second compound 0.000949 µM) of over 1 µM, an IC50 (second compound 0.003 µM) of over 1 µM and an IC50 (second compound 0.00949 µM) of over 1 µM. For the same molecule, the IC50 (second compound 0.03 µM) was over 1 µM, the IC50 (second compound 0.0949 µM) was over 1 µM and the IC50 (second compound 0.3 µM) was over 1 µM. For the same molecule, the viability, T/C (second compound 0.000949 µM, first compound 0.00316 µM) was 82%, the viability, T/C (second compound 0.000949 µM, first compound 0.01 µM) was 83% and the viability, T/C (second compound 0.000949 µM, first compound 0.0316 µM) was 83.5%. For the same molecule, the viability, T/C (second compound 0.000949 µM, first compound 0.1 µM) was 74.2%, the viability, T/C (second compound 0.000949 µM, first compound 0.316 µM) was 76% and the viability, T/C (second compound 0.000949 µM, first compound 1 µM) was 77.8%. For the same molecule, the viability, T/C (second compound 0.003 µM, first compound 0.00316 µM) was 78%, the viability, T/C (second compound 0.003 µM, first compound 0.01 µM) was 61.3% and the viability, T/C (second compound 0.003 µM, first compound 0.0316 µM) was 73.6%. For the same molecule, the viability, T/C (second compound 0.003 µM, first compound 0.1 µM) was 81.1%, the viability, T/C (second compound 0.003 µM, first compound 0.316 µM) was 86% and the viability, T/C (second compound 0.003 µM, first compound 1 µM) was 71.1%. The viability, T/C (second compound 0.00949 µM, first compound 0.00316 µM) was 75.4%, the viability, T/C (second compound 0.00949 µM, first compound 0.01 µM) was 83.9% and the viability, T/C (second compound 0.00949 µM, first compound 0.0316 µM) was 77.5%. The viability, T/C (second compound 0.00949 µM, first compound 0.1 µM) was 85.3%, the viability, T/C (second compound 0.00949 µM, first compound 0.316 µM) was 85.5% and the viability, T/C (second compound 0.00949 µM, first compound 1 µM) was 78.6%. The viability, T/C (second compound 0.03 µM, first compound 0.00316 µM) was 77.4%, the viability, T/C (second compound 0.03 µM, first compound 0.01 µM) was 76.1% and the viability, T/C (second compound 0.03 µM, first compound 0.0316 µM) was 77.6%. The viability, T/C (second compound 0.03 µM, first compound 0.1 µM) was 75.9%, the viability, T/C (second compound 0.03 µM, first compound 0.316 µM) was 81.7% and the viability, T/C (second compound 0.03 µM, first compound 1 µM) was 73.3%. It also gave a viability, T/C (second compound 0.0949 µM, first compound 0.00316 µM) of 83.4%, a viability, T/C (second compound 0.0949 µM, first compound 0.01 µM) of 70.5% and a viability, T/C (second compound 0.0949 µM, first compound 0.0316 µM) of 79.7%. The viability, T/C (second compound 0.0949 µM, first compound 0.1 µM) was 76.1%, the viability, T/C (second compound 0.0949 µM, first compound 0.316 µM) was 73.8% and the viability, T/C (second compound 0.0949 µM, first compound 1 µM) was 72.8%. It also gave a viability, T/C (second compound 0.3 µM, first compound 0.00316 µM) of 58.1%, a viability, T/C (second compound 0.3 µM, first compound 0.01 µM) of 67% and a viability, T/C (second compound 0.3 µM, first compound 0.0316 µM) of 66.3%. It also gave a viability, T/C (second compound 0.3 µM, first compound 0.1 µM) of 68.5%, a viability, T/C (second compound 0.3 µM, first compound 0.316 µM) of 70% and a viability, T/C (second compound 0.3 µM, first compound 1 µM) of 66.8%.

In the case of `CC1(C)CCC(Nc2ncc(C(F)(F)F)c(-c3c[nH]c4c(P(C)(C)=O)c(C#N)ccc34)n2)CN1` (stereo unspecified) + CCn1c(-c2cccnc2C(C)OC)c2c3cc(ccc31)N1CCOC(CC(NC(=O)C(C(C)C)N(C)C(=O)C3(F)CCN(C(=O)C#CC(C)(C)N(C)C)CC3)C(=O)N3CCCC(N3)C(=O)OCC(C)(C)C2)C1, the IC50 (second compound 0.000949 µM) is reported as 0.0168 µM, the IC50 (second compound 0.003 µM) is reported as 0.0151 µM and the IC50 (second compound 0.00949 µM) is reported as 0.0132 µM. For the same molecule, the IC50 (second compound 0.03 µM) was 0.0159 µM, the IC50 (second compound 0.0949 µM) was 0.0138 µM and the IC50 (second compound 0.3 µM) was 0.011 µM. The viability, T/C [1] was 88.3%, the viability, T/C [2] was 79% and the viability, T/C [3] was 63.7%. The viability, T/C [4] was 36.4%, the viability, T/C [5] was 24.2% and the viability, T/C [6] was 18.5%. It also gave a viability, T/C [7] of 80.2%, a viability, T/C [8] of 81% and a viability, T/C [9] of 57.8%. It also gave a viability, T/C [10] of 35.9%, a viability, T/C [11] of 24.9% and a viability, T/C [12] of 18%. It also gave a viability, T/C [13] of 74.1%, a viability, T/C [14] of 71.8% and a viability, T/C [15] of 55.3%. For the same molecule, the viability, T/C [16] was 35.1%, the viability, T/C [17] was 22.7% and the viability, T/C [18] was 17.1%. The viability, T/C [19] was 74.7%, the viability, T/C [20] was 73.7% and the viability, T/C [21] was 63.8%. The viability, T/C [22] was 33%, the viability, T/C [23] was 20.9% and the viability, T/C [24] was 19%. For the same molecule, the viability, T/C [25] was 72.8%, the viability, T/C [26] was 66.1% and the viability, T/C [27] was 58.4%. The viability, T/C [28] was 34.7%, the viability, T/C [29] was 21.8% and the viability, T/C [30] was 18%. The viability, T/C [31] was 69.1%, the viability, T/C [32] was 63.7% and the viability, T/C [33] was 53.9%. It also gave a viability, T/C [34] of 29.6%, a viability, T/C [35] of 19% and a viability, T/C [36] of 14.8%.

For `CCc1c2c(nc3ccc(O)cc13)-c1cc3c(c(=O)n1C2)COC(=O)[C@]3(O)CC` + CCn1c(-c2cccnc2C(C)OC)c2c3cc(ccc31)N1CCOC(CC(NC(=O)C(C(C)C)N(C)C(=O)C3(F)CCN(C(=O)C#CC(C)(C)N(C)C)CC3)C(=O)N3CCCC(N3)C(=O)OCC(C)(C)C2)C1, the IC50 (second compound 0.000949 µM) was 0.00424 µM, the IC50 (second compound 0.003 µM) was 0.00318 µM and the IC50 (second compound 0.00949 µM) was 0.00299 µM. The IC50 (second compound 0.03 µM) was 0.00298 µM, the IC50 (second compound 0.0949 µM) was 0.0027 µM and the IC50 (second compound 0.3 µM) was 0.00163 µM. It also gave a viability, T/C [1] of 89.5%, a viability, T/C [2] of 68.3% and a viability, T/C [3] of 7.36%. The viability, T/C [4] was 4.07%, the viability, T/C [5] was 2.52% and the viability, T/C [6] was 1.41%. For the same molecule, the viability, T/C [7] was 62.1%, the viability, T/C [8] was 52.2% and the viability, T/C [9] was 8.47%. It also gave a viability, T/C [10] of 3.87%, a viability, T/C [11] of 2.21% and a viability, T/C [12] of 1.33%. It also gave a viability, T/C [13] of 78.3%, a viability, T/C [14] of 49.9% and a viability, T/C [15] of 7.64%. For the same molecule, the viability, T/C [16] was 4.13%, the viability, T/C [17] was 2.66% and the viability, T/C [18] was 1.35%. It also gave a viability, T/C [19] of 78.1%, a viability, T/C [20] of 49.9% and a viability, T/C [21] of 7.8%. The viability, T/C [22] was 3.09%, the viability, T/C [23] was 2.15% and the viability, T/C [24] was 1.08%. The viability, T/C [25] was 75.5%, the viability, T/C [26] was 47.4% and the viability, T/C [27] was 6.39%. The viability, T/C [28] was 4.02%, the viability, T/C [29] was 2.14% and the viability, T/C [30] was 1.27%. For the same molecule, the viability, T/C [31] was 62.8%, the viability, T/C [32] was 35.8% and the viability, T/C [33] was 5.11%. The viability, T/C [34] was 3.66%, the viability, T/C [35] was 1.47% and the viability, T/C [36] was 1.32%.
